Read-outs that look alike come from different tables or passages of the source.
Assays:
[1] = In vivo pharmacokinetics in plasma and hippocampus (LC-MS/MS); design: species or system C57BL mice; conditions: 3 mg/kg, po
Method: T-518, ACY-738, Ricolinostat, and Tubastatin A were synthesized in Takeda. For in vitro cellular experiments, the compounds were solubilized with DMSO and diluted in the culture medium at the indicated concentrations. For in vivo experiments, the compound was reconstituted in 0.5% methylcellulose and administered orally at the indicated doses. After administration, mouse hippocampus was isolated and homogenized in RIPA extraction buffer (50 mM Tris–HCl, 150 mM NaCl, 1% NP-40, 0.5% sodium deoxycholate, and 0.1% SDS, pH 8.0) supplemented with protease and phosphatase inhibitor cocktail (Thermo Fischer, Waltham, MA, USA). The homogenate was centrifuged at 10,000g for 15 min and the supernatant was taken as the RIPA-soluble fraction.
The compound concentration was measured by the method previously reported with modification. Briefly, the hippocampus tissues from treated mice were isolated and homogenized in 4 volumes of saline under ice-cold conditions and stored at − 80 °C until liquid chromatography-tandem mass spectrometry (LC–MS/MS) analysis. Before analysis, samples were thawed gently on ice and mixed with three volumes of acetonitrile. The acetonitrile mixtures were vortexed and centrifuged for supernatant collection. The supernatant was diluted in mobile phase A [10 mM ammonium formate and formic acid at 100:0.2 (v/v)] and injected into the LC/MS/MS system. T-518 was analyzed in multiple reaction monitoring mode using an API4000 or API5000 instrument (Applied Biosystems, Foster City, CA, USA) equipped with a Prominence Ultra-fast liquid chromatography system (Shimadzu, Kyoto, Japan) using Shimadzu Shim- pack XR-ODS (2.2 μm, 2.0 × 30 mm) column. Mobile phase B consisted of a mixture of acetonitrile and formic acid at 100:0.2 (v/v). Chromatographic separations were performed by gradient elution at a flow rate of 0.7 mL/min. Mobile phase B was held at 5% for 0.2 min, increased linearly to 99% for 1.1 min, maintained at 99% for 0.7 min, then returned to 5% in 0.01 min, followed by re-equilibration for 0.59 min. A multiple reaction monitoring was used to detect the parent and product ions for the tandem mass spectrometry of T-518, which were corresponding to m/z 494 and m/z 374, respectively, with the negative ion mode [DP; -40, EP; -10, CE; -35, CXP; -15 (arbitrary units)]. Analyst software TM (version 1.6.2) (AB SCIEX, Framingham, MA; https://sciex.com/products/software/analyst-software) was used for data acquisition and processing.

HDAC1‒5, 7‒9, and 11 = assay: HDAC selectivity panel (Reaction Biology Corporation); type: biochemical; conditions: up to 10 μM; heat map Fig. 2A

## O=C1c2cc(-c3nnc(C(F)F)o3)cnc2CN1[C@@H]1CCCC[C@H]1NC(=O)C(F)(F)C(F)(F)F [T-518, N-[(1R,2R)-2-{3-[5-(difluoromethyl)-1,3,4-oxadiazol-2-yl]-5-oxo-5H,6H,7H-pyrrolo[3,4-b]pyridin-6-yl}cyclohexyl]-2,2,3,3,3-pentafluoropropanamide]
[1]; Fu,b 0.4
  average exposure in 24 h in hippocampus: ~17 nM
[1]; C57BL mice
  Hippocampus AUC0–24 h: 202 ng·h/g
[1]; C57BL, mouse, hippocampus, Fu,b 0.4, read-out: Effective Cmax in hippocampus
  Cmax: ~291 nM
[1]; C57BL, mouse, plasma and hippocampus, matrix not given, read-out: Tmax of a single oral dose
  Tmax: ≤ 15 min
[1]; mouse, hippocampus, C57BL mice, read-out: Hippocampus Cmax
  Cmax: 144 ng/g
[1]; mouse, hippocampus, C57BL mice, read-out: Hippocampus MRT
  MRT: 79.8 min
[1]; mouse, hippocampus, C57BL mice, read-out: Hippocampus Tmax
  Tmax: 15 min
[1]; mouse, plasma, C57BL mice, read-out: Plasma AUC0–24 h
  AUC(0-t): 1720 ng·h/mL
[1]; mouse, plasma, C57BL mice, read-out: Plasma Cmax
  Cmax: 1040 ng/mL
[1]; mouse, plasma, C57BL mice, read-out: Plasma MRT
  MRT: 106 min
[1]; mouse, plasma, C57BL mice, read-out: Plasma Tmax
  Tmax: 15 min
HDAC1‒5, 7‒9, and 11
  inhibition of HDAC1‒5, 7‒9, and 11 in HDAC panel: does not inhibit

— publication PMC8322070, “A novel orally active HDAC6 inhibitor T-518 shows a therapeutic potential for Alzheimer’s disease and tauopathy in mice” (Scientific Reports, 2021)
